We go through one molecule from BindingDB's records for doi:10.1021/jm101144f (Dana-Farber Cancer Institute, 2010).

pIC50: −log10 of the molar value.

By pIC50 is commonly meant −log10 of the IC50, conventionally taken in molar units.

A short description of the test: Inhibition of PI3Kalpha in human PC3 cells expressing Akt1 S473D mutant assessed as phosphorylation of Akt Thr308 by immunoblotting. (A western blot detects proteins with antibodies after separation by electrophoresis.)

Regarding `COCCC(=O)N1CCN(c2ccc(Nc3ccnc4ccc(-c5cnc6ccccc6c5)cc34)cc2C(F)(F)F)CC1` [1-(4-(4-([3,6'-biquinolin]-4'-ylamino)-2-(trifluoromethyl)phenyl)piperazin-1-yl)-3-methoxypropan-1-one], the pIC50 is less than 6.52.
